Source: PubChem BioAssay AID256 (DTP/NCI, 2004)
“And” between values parts separate entries of the source, which are not always exact repeats. Equal values may be shown once. Toxic doses and inconclusive results are not listed. Rule for the calls: active = survival T/C of 150% or more; inactive = T/C below 125% in these data.

Test system: CD2F1 mice, L1210 leukemia ip, survival T/C
Experiment: NCI In Vivo Anticancer Drug Screen. Data for tumor model L1210 Leukemia (intraperitoneal) in CD2F1 (CDF1) mice
Details: endpoint: mean survival time, higher = longer survival
In short: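 Compound-dosed mice with transplantable tumor versus matched vehicle controls; endpoint ratio T/C reported.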

[1] = dose: 100.0 mg/kg/injection, schedule: Q04DX002 (ip), vehicle: saline with Tween-80
[2] = dose: 200.0 mg/kg/injection, schedule: Q04DX002 (ip), vehicle: saline with Tween-80
[3] = dose: 100.0 mg/kg/injection, schedule: Q04DX003 (ip), vehicle: saline with Tween-80
[4] = dose: 200.0 mg/kg/injection, schedule: Q04DX003 (ip), vehicle: saline with Tween-80
[5] = dose: 400.0 mg/kg/injection, schedule: Q04DX003 (ip), vehicle: saline with Tween-80
[6] = dose: 25.0 mg/kg/injection, schedule: Q04DX002 (ip), vehicle: saline with Tween-80
[7] = dose: 50.0 mg/kg/injection, schedule: Q04DX002 (ip), vehicle: saline with Tween-80
[8] = dose: 100.0 mg/kg/injection, schedule: Q01DX009 (ip), vehicle: saline with Tween-80
[9] = dose: 200.0 mg/kg/injection, schedule: Q01DX009 (ip), vehicle: saline with Tween-80
[10] = dose: 400.0 mg/kg/injection, schedule: Q01DX009 (ip), vehicle: saline with Tween-80
[11] = dose: 50.0 mg/kg/injection, schedule: Q01DX009 (ip), vehicle: saline with Tween-80

Measured: T/C

Oc1ccc(/C=N/NC(=S)Nc2ccccc2)nc1
inactive: [1] 106 % of control | [2] 106 % of control | dose: 400.0 mg/kg/injection, schedule: Q04DX002 (ip), vehicle: saline with Tween-80 95 % of control

CC(=O)OC/C(=N\Nc1ccc([N+](=O)[O-])cc1[N+](=O)[O-])c1ccccc1
inactive: dose: 3.13 mg/kg/injection, schedule: Q01DX001 (ip), vehicle: saline with Tween-80 107 % of control | dose: 6.25 mg/kg/injection, schedule: Q01DX001 (ip), vehicle: saline with Tween-80 94 % of control | dose: 100.0 mg/kg/injection, schedule: Q01DX001 (ip), vehicle: saline with Tween-80 86 % of control | dose: 400.0 mg/kg/injection, schedule: Q01DX001 (ip), vehicle: saline with Tween-80 90 % of control

S=C(S)NC1CCCCCCCCCCC1
inactive: [3] 102 % of control | [4] 100 % of control | [5] 93 % of control

C/C(=N\O)c1ccc2[nH]c(C)cc(=O)c2c1
inactive: dose: 37.5 mg/kg/injection, schedule: Q01DX009 (ip), vehicle: saline 97 % of control | dose: 75.0 mg/kg/injection, schedule: Q01DX009 (ip), vehicle: saline 97 % of control | dose: 75.0 mg/kg/injection, schedule: Q04DX003 (ip), vehicle: saline 95 % of control | dose: 150.0 mg/kg/injection, schedule: Q01DX009 (ip), vehicle: saline 92 % of control | dose: 150.0 mg/kg/injection, schedule: Q04DX003 (ip), vehicle: saline 95 % of control | dose: 300.0 mg/kg/injection, schedule: Q04DX003 (ip), vehicle: saline 93 % of control

CCN(CC)CCSC(=O)C(O)(c1ccccc1)c1cccc(C)c1 (stereo not drawn)
inactive: dose: 75.0 mg/kg/injection, schedule: Q01DX001 (ip), vehicle: saline 105 % of control

O=C(O)/C=C/c1cccs1
inactive: dose: 50.0 mg/kg/injection, schedule: Q01DX009 (ip), vehicle: Klucel (hydroxypropylcellulose) (HPC) 101 % of control | dose: 100.0 mg/kg/injection, schedule: Q01DX009 (ip), vehicle: Klucel (hydroxypropylcellulose) (HPC) 101 % of control | dose: 200.0 mg/kg/injection, schedule: Q01DX009 (ip), vehicle: Klucel (hydroxypropylcellulose) (HPC) 96 % of control

CN(C)c1cc(C(C)(C)C)nc(C(C)(C)C)c1
inactive: dose: 12.5 mg/kg/injection, schedule: Q04DX002 (ip), vehicle: saline 111 % of control | [6] 98 % of control | dose: 25.0 mg/kg/injection, schedule: Q04DX002 (ip), vehicle: saline 118 % of control | [7] 95 % of control | dose: 50.0 mg/kg/injection, schedule: Q04DX002 (ip), vehicle: saline 100 % of control | [1] 95 % of control

C=C1C(=O)OC2CC(C)C3CC(OCCCl)OC(OCCCl)C3(C)CC12 (stereo not drawn)
inactive: dose: 10.0 mg/kg/injection, schedule: Q01DX005 (ip), vehicle: water 98 % of control | dose: 20.0 mg/kg/injection, schedule: Q01DX005 (ip), vehicle: water 96 % of control | dose: 40.0 mg/kg/injection, schedule: Q01DX005 (ip), vehicle: water 93 % of control | dose: 50.0 mg/kg/injection, schedule: Q01DX005 (ip), vehicle: distilled water + Tween-80 92 % of control | dose: 80.0 mg/kg/injection, schedule: Q01DX005 (ip), vehicle: water 94 % of control | dose: 100.0 mg/kg/injection, schedule: Q01DX005 (ip), vehicle: distilled water + Tween-80 97 % of control | dose: 200.0 mg/kg/injection, schedule: Q01DX005 (ip), vehicle: distilled water + Tween-80 89 % of control | dose: 400.0 mg/kg/injection, schedule: Q01DX005 (ip), vehicle: distilled water + Tween-80 94 % of control

Nc1n[nH]c(=S)s1
inactive: [1] 107 % of control | [2] 96 % of control

Cc1ccc(-c2cc(Cl)c3cc(S(=O)(=O)F)ccc3n2)cc1
inactive: [8] 102 % of control | [3] 104 % of control | [9] 98 % of control | [4] 102 % of control | [10] 90 % of control | [5] 107 % of control

CC(=O)O[C@H]1C(=O)[C@@]2(C)[C@H]([C@H](OC(=O)c3ccccc3)[C@]3(O)C[C@H](OC(=O)[C@H](O)[C@@H](NC(=O)c4ccccc4)c4ccccc4)C(C)=C1C3(C)C)[C@]1(OC(C)=O)CO[C@@H]1C[C@@H]2O
inactive: dose: 1.25 mg/kg/injection, schedule: Q01DX009 (ip), vehicle: Klucel (hydroxypropylcellulose) (HPC) 93 % of control | dose: 2.5 mg/kg/injection, schedule: Q01DX009 (ip), vehicle: Klucel (hydroxypropylcellulose) (HPC) 98 % of control | dose: 5.0 mg/kg/injection, schedule: Q01DX009 (ip), vehicle: Klucel (hydroxypropylcellulose) (HPC) 113 % of control and 102 % of control | dose: 10.0 mg/kg/injection, schedule: Q01DX009 (ip), vehicle: Klucel (hydroxypropylcellulose) (HPC) 115 % of control | dose: 40.0 mg/kg/injection, schedule: Q01DX009 (ip), vehicle: Klucel (hydroxypropylcellulose) (HPC) 107 % of control

CC1=CC2=C(C=O)C(=O)[C@](C)(O)[C@@H](O)C2=CO1
inactive: dose: 12.5 mg/kg/injection, schedule: Q01DX009 (ip), vehicle: saline with Tween-80 114 % of control | dose: 25.0 mg/kg/injection, schedule: Q01DX009 (ip), vehicle: saline with Tween-80 111 % of control | [11] 122 % of control

CC1=NCCCN=C(C)C([N+](=O)[O-])C=NC(C)(C)CN=CC1[N+](=O)[O-].[Ni] (stereo not drawn)
inactive: dose: 12.5 mg/kg/injection, schedule: Q04DX002 (ip), vehicle: saline with Tween-80 97 % of control | [6] 97 % of control | [7] 93 % of control

CCN=C(NCC)SCCSC(=NCC)NCC
inactive: [1] 104 % of control | [2] 102 % of control

BrC1CC2CC1C1C=CCC21 (stereo not drawn)
inactive: [8] 100 % of control | [9] 101 % of control | [10] 101 % of control

O=C(O)CC(NC(=O)CP(=O)(O)O)C(=O)O (stereo not drawn)
inactive: dose: 86.4 mg/kg/injection, schedule: Q01DX009 (ip), vehicle: saline 98 % of control | dose: 200.0 mg/kg/injection, schedule: Q01DX009 (ip), vehicle: saline 112 % of control | dose: 225.0 mg/kg/injection, schedule: Q01DX009 (ip), vehicle: saline 116 % of control | dose: 240.0 mg/kg/injection, schedule: Q01DX009 (ip), vehicle: saline 105 % of control | dose: 250.0 mg/kg/injection, schedule: Q01DX009 (ip), vehicle: saline 115 % of control

CCCc1ccc(OC)cc1
inactive: [11] 103 % of control | [8] 97 % of control | [3] 98 % of control | [4] 94 % of control

ClCc1ccc(CCl)c(Cl)c1Cl
inactive: [3] 96 % of control

CCCCCCCCCCCCCCCCN(C)S(=O)(=O)c1cccc(S(=O)(=O)F)c1
inactive: [3] 95 % of control | [4] 101 % of control | [5] 102 % of control

CCCCCCCCCCCCCCC/C([O-])=N/[N+](C)(C)CC(C)O (stereo not drawn)
inactive: dose: 25.0 mg/kg/injection, schedule: Q01DX001 (ip), vehicle: saline 95 % of control and 100 % of control | dose: 50.0 mg/kg/injection, schedule: Q01DX001 (ip), vehicle: saline 100 % of control | [11] 89 % of control | dose: 100.0 mg/kg/injection, schedule: Q01DX001 (ip), vehicle: saline 89 % of control and 97 % of control | [8] 91 % of control | dose: 200.0 mg/kg/injection, schedule: Q01DX001 (ip), vehicle: saline 97 % of control | dose: 400.0 mg/kg/injection, schedule: Q01DX001 (ip), vehicle: saline 100 % of control
